How the values were obtained:
[1] = molecular target: benzodiazepine rat brain site; assay: PDSP binding screen; details: HCl salt
Excerpt: (§1) The binding of HY-3-24 to various GPCRs was investigated through comprehensive screening by Psychoactive Drug Screening Program (PDSP) (Supplementary Table S1) ([Besnard et al., 2012]). These GPCRs included major neurotransmitter receptors family (e.g., dopamine, serotonin, histamine, opioid, muscarinic, adrenergic, sigma receptors, ɤ-amino-butyric acid type A, and benzodiazepine receptors) and transporters (e.g., dopamine, norepinephrine, and serotonin transporter).

[2] = molecular target: serotonin 5-HT2A (Homo sapiens, UniProt P28223); assay: PDSP binding screen; details: HCl salt
Excerpt: as §1

[3] = molecular target: serotonin 5-HT2C (Homo sapiens, UniProt P28335); assay: PDSP binding screen; details: HCl salt
Excerpt: as §1

[4] = molecular target: serotonin 5-HT1D (Homo sapiens, UniProt P28221); assay: PDSP binding screen; details: HCl salt
Excerpt: as §1

[5] = molecular target: T1, opioid KOR (Homo sapiens, UniProt P41145); assay: PDSP binding screen; details: HCl salt
T1 construct: Psychoactive Drug Screening Program (PDSP)
Excerpt: as §1

[6] = molecular target: T2, Muscarinic M5 (Homo sapiens, UniProt P08912); assay: PDSP binding screen; details: HCl salt
T2 construct: Psychoactive Drug Screening Program (PDSP)
Excerpt: as §1

[7] = molecular target: serotonin 5-HT3 (Homo sapiens, UniProt P46098); assay: PDSP binding screen; details: HCl salt
Excerpt: as §1

[8] = molecular target: T3, serotonin 5-HT6 (Homo sapiens, UniProt P50406); assay: PDSP binding screen; details: HCl salt
T3 construct: Psychoactive Drug Screening Program (PDSP)
Excerpt: as §1

[9] = molecular target: T4, norepinephrine transporter (Homo sapiens, UniProt P23975); assay: PDSP binding screen; details: HCl salt
T4 construct: Psychoactive Drug Screening Program (PDSP)
Excerpt: as §1

[10] = molecular target: serotonin 5-HT2B (Homo sapiens, UniProt P41595); assay: PDSP binding screen; details: HCl salt
Excerpt: as §1

[11] = molecular target: T5, Muscarinic M4 (Homo sapiens, UniProt P08173); assay: PDSP binding screen; details: HCl salt
T5 construct: Psychoactive Drug Screening Program (PDSP)
Excerpt: as §1

[12] = molecular target: T6, adrenergic alpha2B (Homo sapiens, UniProt P18089); assay: PDSP binding screen; details: HCl salt
T6 construct: Psychoactive Drug Screening Program (PDSP)
Excerpt: as §1

[13] = molecular target: T7, Muscarinic M2 (Homo sapiens, UniProt P08172); assay: PDSP binding screen; details: HCl salt
T7 construct: Psychoactive Drug Screening Program (PDSP)
Excerpt: as §1

[14] = molecular target: benzodiazepine receptor; assay: PDSP binding screen; details: HCl salt
Excerpt: as §1

[15] = molecular target: dopamine D3 (Homo sapiens, UniProt P35462); assay: PDSP binding screen; details: HCl salt, [3H]N-methylspiperone
Excerpt: as §1

[16] = molecular target: T8, sigma1 (Homo sapiens, UniProt Q99720); assay: PDSP binding screen; details: HCl salt
T8 construct: Psychoactive Drug Screening Program (PDSP)
Excerpt: as §1

[17] = molecular target: T9, dopamine active transporter (Homo sapiens, UniProt Q01959); assay: PDSP binding screen; details: HCl salt
T9 construct: Psychoactive Drug Screening Program (PDSP)
Excerpt: as §1

[18] = molecular target: T10, adrenergic beta2 (Homo sapiens, UniProt P07550); assay: PDSP binding screen; details: HCl salt
T10 construct: Psychoactive Drug Screening Program (PDSP)
Excerpt: as §1

[19] = molecular target: dopamine D1 (Homo sapiens, UniProt P21728); assay: PDSP binding screen; details: HCl salt
Excerpt: as §1

[20] = molecular target: ɤ-aminobutyric acid type A; assay: PDSP binding screen; details: HCl salt
Excerpt: as §1

[21] = molecular target: T11, adrenergic alpha2A (Homo sapiens, UniProt P08913); assay: PDSP binding screen; details: HCl salt
T11 construct: Psychoactive Drug Screening Program (PDSP)
Excerpt: as §1

[22] = molecular target: T12, Muscarinic M3 (Homo sapiens, UniProt P20309); assay: PDSP binding screen; details: HCl salt
T12 construct: Psychoactive Drug Screening Program (PDSP)
Excerpt: as §1

[23] = molecular target: T13, sigma2 (Homo sapiens, UniProt Q5BJF2); assay: PDSP binding screen; details: HCl salt
T13 construct: Psychoactive Drug Screening Program (PDSP)
Excerpt: as §1

[24] = molecular target: dopamine D2 (Homo sapiens, UniProt P14416); assay: PDSP binding screen; details: HCl salt, [3H]N-methylspiperone
Excerpt: as §1

[25] = molecular target: dopamine D4 (Homo sapiens, UniProt P21917); assay: PDSP binding screen; details: HCl salt
Excerpt: as §1

[26] = molecular target: T14, human D2R (Homo sapiens, UniProt P14416); assay: D2R radioligand binding assay with [125I]IABN; details: human D2R transfected HEK293 cell membranes, mean ± SEM of three experiments
T14 construct: expressed in transfected cells; host or cells: HEK293
Method: The dopamine receptor binding assay was performed according to previous studies ([Luedtke et al., 2000]; [Vangveravong et al., 2006]; [Reilly et al., 2017]), and human D2R or D3R or D4 transfected HEK293 cells were used for dopamine receptor binding assay. The cells were grown in Dulbecco’s Modified Eagle Medium including 10% FBS, 0.1% Penn Strep, […] of geneticin (G418) for human D2R or D3R transfected HEK293 cells, and […] of puromycin for human D4 HEK293 cells at 5% CO2, 37°C. The cells were collected by centrifuge (6,000 × g, 10 min), and the supernatant was discarded. Cold homogenization buffer (50 mM Na Hepes, 0.1 mM EDTA, 1 mM DTT, pH 7.4) was added into the pellet and homogenized by a polytron (Brinkmann Instruments, Westbury, NY, United States), and centrifuged at 40,000 × g for 10 min. This process was repeated two more times to get final pellet, and the membranes were then resuspended with HB buffer including 5 mM MgCl2 and stored at −80°C until use.
HY-3-24 was prepared in 10^−5 to 10^−11 M concentration range with assay buffer (50 mM Tris–HCl, 150 mM NaCl, 10 mM EDTA, pH 7.5). […] The membrane was washed with cold buffer (three times), and collected filters were counted on a gamma counter (GMI, Minnesota, United States). The results were analyzed by nonlinear regression, and the data were reported mean ± SEM values by three independent experiments.

T5 sequence (P08173 whole entry): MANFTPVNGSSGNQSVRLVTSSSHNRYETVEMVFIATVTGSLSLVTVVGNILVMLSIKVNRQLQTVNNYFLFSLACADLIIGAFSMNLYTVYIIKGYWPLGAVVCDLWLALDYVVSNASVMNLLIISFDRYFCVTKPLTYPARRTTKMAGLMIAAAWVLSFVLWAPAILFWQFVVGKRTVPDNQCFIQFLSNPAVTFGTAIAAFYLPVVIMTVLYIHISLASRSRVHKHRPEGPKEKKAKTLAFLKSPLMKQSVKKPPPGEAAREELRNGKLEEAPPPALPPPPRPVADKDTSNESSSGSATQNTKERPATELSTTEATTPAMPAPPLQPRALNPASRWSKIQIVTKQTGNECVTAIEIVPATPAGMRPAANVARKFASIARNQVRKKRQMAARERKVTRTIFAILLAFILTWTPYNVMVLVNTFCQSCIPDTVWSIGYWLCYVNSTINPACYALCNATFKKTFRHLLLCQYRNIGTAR
serotonin 5-HT2A, sequence (P28223 whole entry): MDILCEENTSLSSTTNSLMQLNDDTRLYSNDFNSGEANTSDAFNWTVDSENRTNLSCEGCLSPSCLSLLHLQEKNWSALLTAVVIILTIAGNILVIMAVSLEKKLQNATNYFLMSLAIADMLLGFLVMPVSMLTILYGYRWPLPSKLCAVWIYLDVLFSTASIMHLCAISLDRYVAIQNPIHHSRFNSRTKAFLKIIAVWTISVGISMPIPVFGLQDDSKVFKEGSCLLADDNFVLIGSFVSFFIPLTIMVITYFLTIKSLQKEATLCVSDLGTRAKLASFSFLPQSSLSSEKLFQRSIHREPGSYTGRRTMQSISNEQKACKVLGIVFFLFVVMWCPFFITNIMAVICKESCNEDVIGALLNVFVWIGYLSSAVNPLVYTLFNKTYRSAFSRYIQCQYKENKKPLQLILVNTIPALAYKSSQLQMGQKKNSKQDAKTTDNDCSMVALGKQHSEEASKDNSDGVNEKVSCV
T6 sequence (P18089 whole entry): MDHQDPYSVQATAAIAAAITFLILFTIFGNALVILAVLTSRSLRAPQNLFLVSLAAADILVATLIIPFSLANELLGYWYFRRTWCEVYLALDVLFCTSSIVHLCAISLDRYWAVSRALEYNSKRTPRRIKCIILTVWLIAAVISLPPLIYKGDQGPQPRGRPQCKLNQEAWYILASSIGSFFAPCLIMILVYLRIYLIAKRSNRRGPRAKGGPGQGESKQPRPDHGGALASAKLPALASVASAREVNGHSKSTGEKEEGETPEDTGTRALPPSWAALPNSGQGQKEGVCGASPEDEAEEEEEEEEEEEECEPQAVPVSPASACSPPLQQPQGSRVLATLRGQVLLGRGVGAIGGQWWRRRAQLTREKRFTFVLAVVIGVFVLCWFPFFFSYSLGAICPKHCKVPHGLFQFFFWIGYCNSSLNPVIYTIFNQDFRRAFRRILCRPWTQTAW
T3 sequence (P50406 whole entry): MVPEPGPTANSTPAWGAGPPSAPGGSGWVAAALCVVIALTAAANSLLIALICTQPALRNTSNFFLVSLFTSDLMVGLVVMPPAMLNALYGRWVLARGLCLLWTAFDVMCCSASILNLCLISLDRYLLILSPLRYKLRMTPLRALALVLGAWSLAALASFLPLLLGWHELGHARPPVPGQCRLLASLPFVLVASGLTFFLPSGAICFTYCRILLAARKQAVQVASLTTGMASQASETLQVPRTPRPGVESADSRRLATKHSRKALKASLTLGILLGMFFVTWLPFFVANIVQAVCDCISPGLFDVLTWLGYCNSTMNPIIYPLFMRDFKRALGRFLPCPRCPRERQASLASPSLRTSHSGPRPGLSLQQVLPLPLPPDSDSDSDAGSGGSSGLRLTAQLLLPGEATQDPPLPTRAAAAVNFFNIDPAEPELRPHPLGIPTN
T2 sequence (P08912 whole entry): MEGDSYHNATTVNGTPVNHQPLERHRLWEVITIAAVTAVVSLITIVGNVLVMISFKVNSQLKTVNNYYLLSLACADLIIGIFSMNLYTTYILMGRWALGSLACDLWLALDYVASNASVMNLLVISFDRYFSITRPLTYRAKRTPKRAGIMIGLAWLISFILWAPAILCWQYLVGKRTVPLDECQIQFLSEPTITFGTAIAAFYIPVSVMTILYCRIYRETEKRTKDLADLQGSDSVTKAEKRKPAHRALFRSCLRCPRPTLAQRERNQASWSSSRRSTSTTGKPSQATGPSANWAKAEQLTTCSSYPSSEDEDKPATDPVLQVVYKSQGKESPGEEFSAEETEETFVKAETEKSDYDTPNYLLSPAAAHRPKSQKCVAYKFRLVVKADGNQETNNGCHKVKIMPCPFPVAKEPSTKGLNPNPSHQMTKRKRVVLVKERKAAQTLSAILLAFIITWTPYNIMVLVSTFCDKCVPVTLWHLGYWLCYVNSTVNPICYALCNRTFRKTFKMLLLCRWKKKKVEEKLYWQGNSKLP
dopamine D4, sequence (P21917 whole entry): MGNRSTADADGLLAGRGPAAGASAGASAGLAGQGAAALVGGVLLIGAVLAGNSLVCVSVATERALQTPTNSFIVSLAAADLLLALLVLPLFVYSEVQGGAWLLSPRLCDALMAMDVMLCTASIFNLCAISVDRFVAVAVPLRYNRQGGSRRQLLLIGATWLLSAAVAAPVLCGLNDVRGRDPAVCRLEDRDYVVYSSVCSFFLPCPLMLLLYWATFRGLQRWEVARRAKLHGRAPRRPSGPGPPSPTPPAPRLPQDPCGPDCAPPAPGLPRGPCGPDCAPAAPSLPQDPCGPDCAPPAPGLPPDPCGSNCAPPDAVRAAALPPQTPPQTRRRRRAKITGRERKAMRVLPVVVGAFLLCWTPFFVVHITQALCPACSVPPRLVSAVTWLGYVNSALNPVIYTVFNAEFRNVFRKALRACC
T9 sequence (Q01959 whole entry): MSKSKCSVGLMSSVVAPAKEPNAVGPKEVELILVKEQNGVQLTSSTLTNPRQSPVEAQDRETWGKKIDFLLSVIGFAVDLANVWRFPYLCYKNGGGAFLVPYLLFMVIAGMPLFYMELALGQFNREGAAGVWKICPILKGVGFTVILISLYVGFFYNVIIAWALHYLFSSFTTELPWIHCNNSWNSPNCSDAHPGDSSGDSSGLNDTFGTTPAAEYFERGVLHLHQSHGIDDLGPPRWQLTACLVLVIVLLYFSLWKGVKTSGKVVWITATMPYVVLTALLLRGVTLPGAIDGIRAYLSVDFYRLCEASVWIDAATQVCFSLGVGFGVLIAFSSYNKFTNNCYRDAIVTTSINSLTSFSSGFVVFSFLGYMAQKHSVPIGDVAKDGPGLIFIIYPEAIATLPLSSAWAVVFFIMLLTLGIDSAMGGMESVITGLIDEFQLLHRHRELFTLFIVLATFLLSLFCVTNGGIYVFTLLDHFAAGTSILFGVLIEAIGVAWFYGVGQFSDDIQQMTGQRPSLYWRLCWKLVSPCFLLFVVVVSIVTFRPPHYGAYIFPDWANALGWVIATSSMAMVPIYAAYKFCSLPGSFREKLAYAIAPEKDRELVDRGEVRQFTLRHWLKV
T12 sequence (P20309 whole entry): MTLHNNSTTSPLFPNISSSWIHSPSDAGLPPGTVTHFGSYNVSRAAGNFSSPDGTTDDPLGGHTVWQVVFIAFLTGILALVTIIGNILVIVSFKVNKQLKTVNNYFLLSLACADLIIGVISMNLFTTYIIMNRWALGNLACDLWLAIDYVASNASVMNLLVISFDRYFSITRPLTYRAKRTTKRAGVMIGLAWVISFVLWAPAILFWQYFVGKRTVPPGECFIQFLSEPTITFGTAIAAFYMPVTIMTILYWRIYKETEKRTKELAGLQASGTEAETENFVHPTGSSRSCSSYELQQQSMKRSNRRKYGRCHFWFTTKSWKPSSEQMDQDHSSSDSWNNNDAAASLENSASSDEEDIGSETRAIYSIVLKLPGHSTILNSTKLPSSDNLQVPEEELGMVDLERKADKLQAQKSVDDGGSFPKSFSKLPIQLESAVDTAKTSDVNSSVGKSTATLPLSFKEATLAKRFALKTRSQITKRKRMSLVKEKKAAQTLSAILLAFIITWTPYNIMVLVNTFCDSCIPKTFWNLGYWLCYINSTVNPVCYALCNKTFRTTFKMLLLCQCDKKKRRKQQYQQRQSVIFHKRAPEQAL
serotonin 5-HT3, sequence (P46098 24-478): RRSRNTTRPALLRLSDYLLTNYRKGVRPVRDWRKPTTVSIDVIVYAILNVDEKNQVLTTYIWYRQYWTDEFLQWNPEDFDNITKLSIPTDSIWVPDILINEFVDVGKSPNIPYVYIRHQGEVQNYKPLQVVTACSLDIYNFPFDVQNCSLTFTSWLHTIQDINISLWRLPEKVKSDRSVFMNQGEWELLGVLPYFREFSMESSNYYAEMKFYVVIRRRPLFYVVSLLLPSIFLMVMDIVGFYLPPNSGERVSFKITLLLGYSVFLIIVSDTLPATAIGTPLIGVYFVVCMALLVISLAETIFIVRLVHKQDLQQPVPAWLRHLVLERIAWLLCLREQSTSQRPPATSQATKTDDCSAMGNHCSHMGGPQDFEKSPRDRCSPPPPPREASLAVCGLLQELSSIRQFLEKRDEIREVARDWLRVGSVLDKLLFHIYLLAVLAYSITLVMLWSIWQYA
T11 sequence (P08913 whole entry): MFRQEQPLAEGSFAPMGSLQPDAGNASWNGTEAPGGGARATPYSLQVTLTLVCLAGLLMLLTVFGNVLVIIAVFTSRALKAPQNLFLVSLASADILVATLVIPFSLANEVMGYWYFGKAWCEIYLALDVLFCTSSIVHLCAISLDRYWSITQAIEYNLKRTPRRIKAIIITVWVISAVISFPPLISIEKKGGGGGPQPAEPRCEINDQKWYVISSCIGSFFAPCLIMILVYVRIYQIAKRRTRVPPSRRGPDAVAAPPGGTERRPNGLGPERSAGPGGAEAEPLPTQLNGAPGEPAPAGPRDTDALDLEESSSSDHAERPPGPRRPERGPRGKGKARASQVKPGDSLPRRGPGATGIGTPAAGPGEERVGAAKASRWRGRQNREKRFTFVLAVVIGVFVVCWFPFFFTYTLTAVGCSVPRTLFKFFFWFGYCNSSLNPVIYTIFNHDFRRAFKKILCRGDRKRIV

CCN(CCCNC(=O)c1ccc(-c2ccncc2)cc1)CCNC(=O)c1cc(I)cc(OC)c1OC [HY-3-24, N-(2-(Ethyl(3-(4-(pyridin-4-yl)benzamido)propyl)amino)ethyl)-5-iodo-2,3-dimethoxybenzamide]
Ki benzodiazepine rat brain site [1]: N.A. (not active, less than 50% inhibition in primary binding assays at 10 µM) | Ki [2]: 0.31 µM | Ki [3]: 0.613 µM | Ki [4]: 1.69 µM | Ki [5]: 1.55 µM | Ki [6]: 0.118 µM | Ki [7]: 0.904 µM | Ki [8]: 1.04 µM | Ki [9]: 5.95 µM | Ki [10]: 0.038 µM | Ki [11]: 0.544 µM | Ki [12]: 1.07 µM | Ki [13]: 0.832 µM | Ki [14]: 5.64 µM | Ki [15]: 0.0012 µM | Ki [16]: 1.95 µM | Ki [17]: 1.13 µM | Ki [18]: 5.83 µM | Ki D1 [19]: N.A. (not active, less than 50% inhibition in primary binding assays at 10 µM) | Ki [20]: 1.12 µM | Ki [21]: 2.15 µM | Ki [22]: 1.78 µM | Ki [23]: 2.31 µM | Ki [24]: 0.043 µM | Ki [25]: 1.86 µM | Ki [26]: 0.0867 ± 0.0119 µM
